In patent US10441565B2, “Conjugate of memantine and arctigenin, and composition and use thereof” (Shenzhen Qingyaqirui Bio-Tech Co., Ltd., priority 2015, dated 2019):
Counter-ions that a name gives are not always drawn.

Key:
[1] = tested on: APP/PS1 transgenic AD model mice; test: Morris water maze test, memory impairment of APP/PS1 transgenic AD model mice; assay type: in vivo; conditions: 50 mg/kg/day by gastric gavage for 60 days, versus solvent-treated transgenic mice, FIG. 3
Protocol: In the present invention, conjugate A04 was administered by gastric gavage to APP/PS1 transgenic AD model mice, and then the effect of conjugate A04 on the memory impairment of transgenic AD model mice was detected through the classic Morris water maze test.
In this experiment, APP/PS1 double transgenic AD model mice, which developed Aβ deposition when they were about 6 months old, and had impairment on the space memory when they were about 7 months old, were employed. Therefore, in this experiment, the impairment on the space memory of the mice was further detected via the water maze test, and at the same time, whether conjugate A04 has a therapeutic or improving effect on the memory impairment was evaluated.
1) Identification of APP/PS1 double transgenic AD model mice: the mice's tail was snipped off, then the gene sequence of APP/PS1 in mice was identified by PCR. The wild type C57 (B6C3) mice were used as the negative control mice. […]
3) Morris water maze test: a mixture of water and fresh milk at a temperature of 19-20° C. was injected into a white round pool with a diameter of 120 centimeters daily in the test. […] The motion track and speed of the mice were automatically recorded by Anymaze and the matched camera. The average time of searching the platform in the four tests per day was recorded as the time for searching the platform on that day (latent period). […]

[2] = tested on: drosophila Alzheimer's disease model wherein humanized A342 was overexpressed; test: Pavlovian olfactory memory test, rescue of memory impairment in drosophila AD model; assay type: in vivo
Source text: A drosophila Alzheimer's disease model wherein humanized A342 was overexpressed (the model drosophila has significant learning and memory defects), was employed in the present invention to evaluate the effect of conjugate A04 in rescuing the learning and memory ability of the model drosophila.
Pavlovian olfactory memory platform was improved from the literatures (see Tully, T. et al., Classical conditioning and retention in normal and mutant Drosophila melanogaster. (1985) J. Comp. Physiol. A 157: 263-277; Tully, T. et al., Genetic dissection of consolidated memory in Drosophila. (1994) Cell 79: 35-47; Yin, J. C. et al., Induction of a dominant negative CREB transgene specifically blocks long-term memory in Drosophila. (1994) Cell 79: 49-58). The learning and memory test was performed in a behavior room having a constant temperature and humidity (25° C. and 70% relative humidity). The test comprises two stages:
training stage: about a hundred drosophilas were placed into a training tube covered with copper net inside, and the drosophilas sequentially smelt two odors (octanol (OCT) and methylcyclohexanol (MCH)). Each odor lasted for 1 minute, and after each of the odors, 45 seconds of fresh air were passed through. The drosophilas were subjected to 1 minute of electric shock only when it smelt the first odor. Such a set of procedures constituted a training cycle. In order to avoid the natural preference of the drosophilas for odors, one tube of the drosophilas smelt OCT first and then received an electric shock at each data point, while the other tube of the drosophilas smelt MCH first and then received an electric shock, and the mean value of the test results of the 2 tubes of drosophilas was a data point.
test stage: the drosophilas were immediately transferred to the selection point of a T-maze after the training, and then they were made to choose between the containers of the two odors within two minutes. After 2 minutes, the numbers of drosophilas in different containers were respectively counted, and the performance index (PI) was calculated. […]

[3] = Pharmacokinetics in rats after gastric gavage, ATG concentration in plasma by LC-MS; assay type: in vivo, SD rats
Protocol: This test investigated the pharmacokinetics of arctigenin (ATG) and conjugate A04 in rats. The rats were administered by gastric gavage with ATG and A04, the whole blood sample was collected at various time points, the plasma was separated, and the concentration of ATG in plasma was determined by LC-MS.
Before the test, the rats were fasted for 12 hours, with free access to water, and were fed 2 hours after administration.
Blood sampling time points: 0.5, 1.0, 2.0, 4.0, 6.0, 8.0 and 12 h after administration by gastric gavage.
0.5 mL venous blood was taken from the posterior venous plexus of the rat's eyeball at the above set time points, put in a heparinized tube, centrifuged for 5 min at 11000 rpm to separate the plasma, and froze in a refrigerator at −20° C.
200 μL acetonitrile was added into 100 μL plasma samples, vortex mixed for 1 min, and centrifuged for 5 min at 11000 rpm; all the supernatant was taken out and put in a 10 mL test tube, dried in an airflow at 40° C., dissolved in 100 μL acetonitrile-water (1:9, v/v), and 10 μL was taken for UPLC/Q-TOF MS analysis.

CC12CC3CC(C)(C1)CC(N)(C3)C2 [memantine hydrochloride]
latent period in the Morris water maze test [1]: no significant change compared with that of the transgenic AD model mice

COc1ccc(C[C@H]2COC(=O)[C@@H]2Cc2ccc(OC(=O)NCCNC(=O)[C@@H](N)COC(=O)NC34CC5CC(C)(CC(C)(C5)C3)C4)c(OC)c2)cc1OC [Conjugate A04]
latent period in the Morris water maze test [1]: significantly shorter than that of the transgenic mice treated with the solvent | rescue effect on the memory impairment of AD drosophilas compared with Mem ([2]; 100 μM, 7 days, FIG. 2): better rescue effect on the memory impairment of AD drosophilas than Mem

COc1cc(C[C@H]2C(=O)OC[C@@H]2Cc2ccc(OC)c(OC)c2)ccc1O [ATG, arctigenin]
oral bioavailability ([3]; according to further investigations of the present inventors): poor | ATG plasma concentration ([3]; rats, 20 mg/kg ATG by gastric gavage, lower detection limit 1.0 ng/ml): < 1.0 ng/mL

CC12CC3CC(C)(C1)CC(N)(C3)C2 [Mem, memantine]
performance index (PI) ([2]; AD drosophilas, 100 μM in 4% sucrose, 4 hours per day for 7 days, AD negative control PI 41, genetic control 19 higher): 55 | rescue effect ([2]; AD drosophilas, negative control group 0%, genetic control group 100%): more than 50%
